Test results reported in paper PMC9714921 (PLOS Pathogens, 2022).
Values joined by “and” are separate entries in the source; they are usually repeats but may differ in a detail not shown here. Equal entries are not always repeated. Structures can show the parent of a compound that is named as a salt. Where two headings read alike, the source gives them in different places.

How the values were obtained:
Tzc-ACR-16 = Tzc-ACR-16 (Thelazia callipaeda, UniProt A0A158RD20); assay: cell-based; assay type: cell-based
Tzc-ACR-16, sequence (A0A158RD20 entry or part of it): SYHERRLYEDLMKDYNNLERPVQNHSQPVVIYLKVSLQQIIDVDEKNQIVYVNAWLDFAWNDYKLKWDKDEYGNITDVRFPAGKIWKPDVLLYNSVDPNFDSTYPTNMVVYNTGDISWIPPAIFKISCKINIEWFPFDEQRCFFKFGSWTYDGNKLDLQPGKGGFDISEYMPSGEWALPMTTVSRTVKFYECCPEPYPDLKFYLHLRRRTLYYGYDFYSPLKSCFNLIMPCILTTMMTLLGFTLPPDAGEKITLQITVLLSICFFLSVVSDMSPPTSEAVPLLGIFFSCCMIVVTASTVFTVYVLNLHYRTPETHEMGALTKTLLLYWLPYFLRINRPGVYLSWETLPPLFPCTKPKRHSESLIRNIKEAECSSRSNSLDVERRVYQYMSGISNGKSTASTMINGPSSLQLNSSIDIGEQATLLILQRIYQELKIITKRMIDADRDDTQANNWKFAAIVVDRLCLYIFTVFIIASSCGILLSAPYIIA
Protocol: (§1) cRNA for oocyte injection was prepared with the mMESSAGE mMACHINE T7 kit following manufacturers protocol (Ambion, USA). Concentration was determined using a Nanodrop spectrophotometer. Desired subunit combinations with associated accessory proteins were mixed and diluted with nuclease-free water to a final concentration of 250 ng/uL for each construct.
(§2) Adult female X. laevis oocyte extraction was performed in accordance with the McGill University Animal Use Protocol 2015–7758 following standard protocol. Briefly, frog ovary lobes were placed in a Ca^2+-free OR2 solution (82 mM NaCl, 2 mM KCl, 1 mM MgCl2, 5 mM HEPES buffer, pH 7.3) and manually divided into clusters of <10 oocytes with thin tweezers followed by a 90-minute incubation in 10 mg/mL collagenase type II (Sigma-Aldrich, USA). Oocytes were washed in Ca^2+-free OR2 and placed ND96 solution (NaCl 96 mM, KCl 2 mM, CaCl2 1.8 mM, MgCl2 1 mM and HEPES 5 mM, pH 7.3) supplemented with sodium pyruvate 2.5 mM [86] and incubated at 18°C until cRNA injection. Oocytes were injected with 50 nL (12.5 ng of each injected gene) of the desired cRNA subunit and accessory protein combination mix with the NanojectII (Drummond Scientific, USA). Following injection, oocytes were incubated in ND96 buffer at 18°C until electrophysiology. All electrophysiology was conducted two days post-injection, except for the expression analysis assay in which oocytes were measured every day after injection for three consecutive days.
(§3) All drugs were dissolved in recording solution (NaCl 100 mM, KCl 2.5 mM, CaCl2 1 mM, HEPES 5 mM, pH 7.3) to a stock concentration of 10 mM and diluted to their final recording concentrations. Oxantel and bephenium were first dissolved in DMSO to ensure a final recording concentration contained less than 0.1% DMSO. For agonist profiling, all drugs were diluted to a concentration of 100 μM.
(§4) Oocytes were placed individually in an RC3Z chamber (Harvard Apparatus, USA) submerged in recording solution (NaCl 100 mM, KCl 2.5 mM, CaCl2 1 mM, HEPES 5 mM, pH 7.3). The RC3Z chamber was connected to a perfusion system containing recording solution and ligand solutions. Pulled glass capillaries (World Precision Instruments, USA) were filled with 3M KCl and the tips clipped and checked for appropriate resistance (between 0.5 and 5 MΩ). A 3M KCl agar bridge grounded the oocyte bath chamber. Measurements were made using an Axon Axoclamp 900A amplifier with Digidata1550M. […] Ligand solutions were applied to the oocytes with an approximate flow rate of 1.2 m/s and current responses measured. Oocytes were exposed to the ligand solution until a distinct current peak was observed followed by a wash with the recording solution until current returned to baseline for a minimum of 10 seconds until the next ligand exposure. For BAPTA-AM exposed oocytes, oocytes were incubated in 100 μM BAPTA-AM for four hours prior to electrophysiology recording. Data was analyzed using Clampex 9.2 (Axon Instruments, USA) and statistical analysis and graphs produced in Prism (GraphPad version 9.1). T-tests were used to compare responses with error bars representing standard error. For concentration-response curves, individual oocyte current response to the different ligand concentrations were normalized to the response obtained with 300 μM. Data was fit using the Graphpad “log(agonist) vs normalized response–variable slope” equation, with 95% confidence intervals being reported. […] For examples of oocyte responses, recordings were filtered in Clampfit using the lowband pass at 40 Hz cutoff.

Dme-ACR-16 = Dme-ACR-16 (Dracunculus medinensis, UniProt A0A0N4U0T6); assay: cell-based; assay type: cell-based
Dme-ACR-16, sequence (A0A0N4U0T6 entry or part of it): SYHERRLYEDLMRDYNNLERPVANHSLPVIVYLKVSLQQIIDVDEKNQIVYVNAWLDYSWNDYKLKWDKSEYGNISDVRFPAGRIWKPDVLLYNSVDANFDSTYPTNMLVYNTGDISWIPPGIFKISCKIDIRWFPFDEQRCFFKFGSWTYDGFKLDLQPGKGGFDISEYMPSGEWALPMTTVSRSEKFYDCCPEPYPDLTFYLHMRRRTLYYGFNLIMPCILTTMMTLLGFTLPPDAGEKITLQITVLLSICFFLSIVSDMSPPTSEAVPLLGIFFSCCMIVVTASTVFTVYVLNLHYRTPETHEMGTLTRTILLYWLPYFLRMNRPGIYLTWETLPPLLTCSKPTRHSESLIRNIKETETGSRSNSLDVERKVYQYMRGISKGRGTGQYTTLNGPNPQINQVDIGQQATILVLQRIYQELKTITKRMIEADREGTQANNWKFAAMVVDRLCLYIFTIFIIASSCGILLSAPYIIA
Protocol: as §1, §2, §3, §4

Asu-ACR-16 = Asu-ACR-16 (Ascaris suum, UniProt F1KYJ9); assay: cell-based; assay type: cell-based
Protocol: as §1, §2, §3, §4

Gpu-ACR-16 = assay: Voltage-clamp electrophysiology, N-AChR reconstituted in Xenopus laevis oocytes; assay type: cell-based, Gonglyonema pulchrum; details: for response to 100 μM ligand relative to 100 μM ACh (in words): agonist panel, Fig 5C; for current response to 100 μM nicotine: co-injected: H. contortus RIC-3
Protocol: as §1, §2, §3, §4

[1] = target: Asu-ACR-16-bmaICL chimera (Ascaris suum; Brugia malayi, UniProt A0A4E9FSR7+F1KYJ9); assay type: cell-based, A. suum (B. malayi ICL); details: compared to Asu-ACR-16 profile, S3D Fig
Protocol: B. malayi acr-16 and accessory proteins ric-3, unc-50, unc-74 and molo-1 were cloned from adult female B. malayi cDNA received as a gift from Dr. T. Geary using the primers described in S1 Table. B. malayi eat-18 was prepared from two overlapping oligonucleotide primers. Other subunits were synthesized from their predicted genome sequence (Gene Universal, USA) (S2 Table). […] All sequences were cloned into the pTD2 oocyte expression vector. Asu-ACR-16 and Tzc-ACR-16 chimeras were constructed using appropriate restriction enzymes, reciprocal exchange through ligation and confirmed by sequencing (McLab, USA).
as §1, §2
All drugs were dissolved in recording solution (NaCl 100 mM, KCl 2.5 mM, CaCl2 1 mM, HEPES 5 mM, pH 7.3) to a stock concentration of 10 mM and diluted to their final recording concentrations. […]
Oocytes were placed individually in an RC3Z chamber (Harvard Apparatus, USA) submerged in recording solution (NaCl 100 mM, KCl 2.5 mM, CaCl2 1 mM, HEPES 5 mM, pH 7.3). […] Ligand solutions were applied to the oocytes with an approximate flow rate of 1.2 m/s and current responses measured. […] Data was analyzed using Clampex 9.2 (Axon Instruments, USA) and statistical analysis and graphs produced in Prism (GraphPad version 9.1). […]

C. elegans N-AChR = test system: C. elegans N-AChR; design: method as in Charvet et al., 2018 [40]; details: accessory protein Ric-3; ref Charvet et al., 2018 [40]; read-out: EC50 μM NIC; cited from earlier work
A celanicum N-AChR = details: accessory protein Ric-3; ref [33]; read-out: EC50 μM NIC; cited from earlier work
Bma-ACR-16 = assay type: cell-based, Brugia malayi; details: co-injected: H. contortus RIC-3
Protocol: as §1, §2, §3, §4

N. americanus N-AChR = details: accessory protein Ric-3; ref [33]; read-out: EC50 μM NIC; cited from earlier work
P. equorum N-AChR = details: accessory protein Ric-3; ref [40]; read-out: EC50 μM NIC; cited from earlier work

Structure (SMILES) | response to 100 μM ligand relative to 100 μM ACh (in words) (Tzc-ACR-16; agonist panel, Fig 5D) | response to 100 μM ligand relative to 100 μM ACh (in words) (Dme-ACR-16; agonist panel, Fig 5B) | response to 100 μM ligand relative to 100 μM ACh (in words) (Asu-ACR-16; agonist panel, Fig 5A) | response to 100 μM ligand relative to 100 μM ACh (in words) (Gpu-ACR-16) | also measured
C[N+](C)(CCOc1ccccc1)Cc1ccccc1 [BEPH, bephenium] | No response | No response | No response | No response | –
C[N+](C)(C)CC(=O)O [BET, betaine] | No response | No response | No response | No response | –
NCCc1ccc(O)c(O)c1 [DA, dopamine] | No response | No response | No response | No response | –
C[N+]1(C)CCN(c2ccccc2)CC1 [DMPP, dimethylphenylpiperazinium] | smaller response | smaller response | smaller response | smaller response | response to 100 μM ligand relative to acetylcholine (in words) [1]: higher responses
CNC[C@H](O)c1ccc(O)c(O)c1 [EPI, epinephrine] | – | – | – | No response | response to 100 μM ligand relative to 100 μM ACh (in words) (Tzc-ACR-16): No response; response to 100 μM ligand relative to 100 μM ACh (in words) (Dme-ACR-16): No response; response to 100 μM ligand relative to 100 μM ACh (in words) (Asu-ACR-16): No response
c1ccc([C@H]2CN3CCSC3=N2)cc1 [LEV, (-)-tetramisole hydrochloride] | No response | No response | No response | No response | –
Cc1ccsc1/C=C/C1=NCCCN1C [MOR, morantel] | minimal response | minimal response | minimal response | minimal response | –
CN1CCC[C@H]1c1cccnc1 [NIC, (-)-nicotine hydrogen tartrate] | – | – | – | large response | EC50 (C. elegans N-AChR): 15.1 ± 1.3 µM; EC50 (A celanicum N-AChR): 24.4 ± 2.89 µM; current response to 100 μM nicotine (Bma-ACR-16): 0 ± 0 nA and no measurable current; EC50 (Tzc-ACR-16): 4.9 µM; current response to 100 μM nicotine (Tzc-ACR-16): 481 ± 45 nA and 400–600 nA; response to 100 μM ligand relative to 100 μM ACh (in words) (Tzc-ACR-16): large response; EC50 (Dme-ACR-16): 3.8 µM; current response to 100 μM nicotine (Dme-ACR-16): 2025 ± 81 nA and 2000–2200 nA; response to 100 μM ligand relative to 100 μM ACh (in words) (Dme-ACR-16): large response; EC50 (Asu-ACR-16): 5.1 µM; current response to 100 μM nicotine (Asu-ACR-16): 2067 ± 74 nA and 2000–2200 nA; response to 100 μM ligand relative to 100 μM ACh (in words) (Asu-ACR-16): large response; EC50 (N. americanus N-AChR): 598 ± 59.1 µM; EC50 (P. equorum N-AChR): 2.9 ± 0.5 µM; current response to 100 μM nicotine (Gpu-ACR-16): ~ 1400 nA; current response to 100 μM nicotine (Gpu-ACR-16; listed as nicotine): 1231 ± 98 nA; EC50 (Gpu-ACR-16; concentration-response 0.3-300 μM, normalized to 300 μM, with 95% CI, read-out: EC50 NIC): 2.1 µM
NC[C@H](O)c1ccc(O)c(O)c1 [NOR, norepinephrine] | No response | No response | No response | No response | –
CN1CCCN=C1/C=C/c1cccc(O)c1 [OXA, oxantel] | smaller response | smaller response | smaller response | smaller response | –
CN1CCCN=C1/C=C/c1cccs1 [PYR, pyrantel] | minimal response | minimal response | minimal response | minimal response | –
NCCc1ccc(O)cc1 [TYR, tyramine] | No response | No response | No response | No response | –
